According to patent publication US20240217951A1, “PCSK9 INHIBITORS AND METHODS OF USE THEREOF” (AstraZeneca AB, priority 2022, published 2024):

Experiments:
[1] = target: T1, human PCSK9 (Homo sapiens, UniProt Q8NBP7); test: Assay 2 - Biophysical human PCSK9 assay (SPR, Biacore); type: binding; conditions: geometric mean; SPR at 30° C; read-out: Assay 2 (PCSK9 BIAcore DBA CR) GMean Kd
T1 construct: biotinylated human PCSK9 (31-692)-Avi-His6; His6 (C)
Protocol: Assay 2—Biophysical Human PCSK9 Assay
The SPR binding experiments were performed on a Biacore S200 optical biosensor unit at 30° C. A Series S Sensor Chip SA that is designed to bind biotinylated molecules for interaction analysis in Biacore systems was equilibrated at room temperature prior to use. The running buffer for protein tethering and subsequent ligand binding experiments was 10 mM HEPES pH 7.4, 150 mM NaCl, 0.05% (v/v) Tween 20 pH 7.4.
For the surface tethering of PCSK9, biotinylated human PCSK9 (31-692)-Avi-His6 at a concentration of 0.5 mg/mL was used. Prior to the surface tethering, the surface was exposed to a solution of 50 mM NaOH, 500 mM NaCl via 3 consecutive injections of this solution with a contact time of 60 s and a flowrate of 10 μL min^−1 to remove non-conjugated streptavidin. The PCSK9 protein was diluted to a concentration of 20 μg/mL using running buffer and injected with a contact time of 180-300 s and a flowrate of 10 μL min^−1 over a single flow channel (typically flow channel 2 or flow channel 4) with the aim to achieve protein capture levels of >5000 response units (RU). Remaining biotin binding sites were blocked via 2 consecutive injections of a 10 μM D-biotin solution in running buffer with a contact time of 60 s and a flowrate of 10 μL min^−1 over all flow-channels. Flow-channels 1 and 3 typically served as a reference surface throughout the subsequent binding experiments.
The binding experiments were all performed at a flow rate of 30 PL min^−1 and by employing the method of single-cycle kinetics. This approach involves the sequential injection of a compound concentration series without regeneration steps. A contact time between 90-150 s was selected, which was followed by a 40 min dissociation phase to allow for a proper estimation of the dissociation rate constant. Test compounds were delivered in DMSO at a concentration of 10 mM and a digital dispenser HP D300 was used to set up the compound concentration series using 6 concentrations. The tested concentrations have been 30, 100, 300, 1000, 3000 and 10000 nM. Prior to injecting any compound, the surfaces were equilibrated by injecting running buffer over them in three separate pulses. The data collection rate was set to 10 Hz.
The raw sensorgrams of the compound injections were first subjected to reference subtraction (subtracting the signal from flow channel 1 and/or 3 from the signal from channels 2 and/or 4 respectively) and then blank subtraction (subtracting the signal from injecting DMSO controls from the reference subtracted data). The resulting double-referenced sensorgrams were then fitted using a 1:1 binding interaction model using the manufactures software package to extract kinetic- and affinity data. Active compounds have been defined by creating a detectable binding signal at the highest compound concentration ([…]) of 3 RUs. Kinetic- and affinity data on active compounds are only provided for those compounds where the binding signal at the highest compound concentration ([…]) is 50% of the theoretical maximum binding signal for a 1:1 binding interaction (Rmax, typically between 15-20 RUs) in order to enable a proper fitting of the data.

[2] = target: T2, potassium ion channel hERG (human Ether-á-go-go-Related Gene) (Homo sapiens, UniProt Q12809); test: Assay 5 - hERG assay (SyncroPatch 384PE patch clamp, CHO cells); type: cell-based; conditions: geometric mean; CHO cells over-expressing hERG; read-out: Assay 5 (hERG Hu CHO IF EPh CR-Syncro) GMean IC50
T2 construct: expressed in transfected cells; host or cells: Chinese hamster ovary K1 (CHO)
Method in brief: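 Automated high-throughput patch clamp on CHO-K1 cells overexpressing hERG at room temperature, KF/KCl internal with escin, NMDG-containing external at pH 7.4. Six-point cumulative compound addition, 0.33% DMSO final; wells kept only with seal >30 MΩ, Z′ >0.4 and current >0.2 nA.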

[3] = target: GSK3β (Glycogen synthase kinase-3 beta) (Homo sapiens, UniProt P49841); test: Assay 6 - GSK3β assay (ThermoFisher Z-Lyte); type: biochemical; conditions: geometric mean; ATP Conc: 10 μM; read-out: Assay 6 (GSK3β FRET-Z-Lyte CR) GMean IC50 (μM) ATP Conc: 10
Method in brief: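 Z-Lyte fluorescence kinase assay with 0.22-0.92 ng GSK3β and 2 μM Ser/Thr 09 peptide in 50 mM HEPES pH 7.5, 10 mM MgCl2, 1 mM EGTA, 0.01% BRIJ-35. Kinase reaction 60 min at room temperature, then 60 min development. 10-point 3-fold titration from 10 μM in 1% DMSO, fitted to a sigmoidal dose-response curve.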

[4] = target: PCSK9 (Homo sapiens, UniProt Q8NBP7, G670E/V474I); test: biochemical
PCSK9, sequence (Q8NBP7 with tags, fused parts or gaps V474I/G670E): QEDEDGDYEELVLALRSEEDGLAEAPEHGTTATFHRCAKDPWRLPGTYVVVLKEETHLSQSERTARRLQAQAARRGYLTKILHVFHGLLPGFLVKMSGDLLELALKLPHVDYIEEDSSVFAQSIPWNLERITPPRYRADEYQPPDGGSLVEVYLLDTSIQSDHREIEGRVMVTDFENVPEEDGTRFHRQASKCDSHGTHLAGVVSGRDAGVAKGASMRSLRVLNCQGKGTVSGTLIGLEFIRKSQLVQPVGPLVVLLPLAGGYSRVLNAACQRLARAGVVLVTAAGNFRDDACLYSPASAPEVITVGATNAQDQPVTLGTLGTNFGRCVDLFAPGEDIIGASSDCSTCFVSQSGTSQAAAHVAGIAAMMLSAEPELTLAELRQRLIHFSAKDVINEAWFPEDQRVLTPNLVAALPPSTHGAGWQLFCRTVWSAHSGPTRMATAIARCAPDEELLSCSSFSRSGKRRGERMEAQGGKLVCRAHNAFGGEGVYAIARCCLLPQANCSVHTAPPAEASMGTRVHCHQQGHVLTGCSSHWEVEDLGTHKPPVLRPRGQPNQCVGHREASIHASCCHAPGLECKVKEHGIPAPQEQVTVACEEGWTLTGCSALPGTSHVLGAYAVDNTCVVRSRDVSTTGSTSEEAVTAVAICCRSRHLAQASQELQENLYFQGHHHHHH

T2 sequence (Q12809 whole entry): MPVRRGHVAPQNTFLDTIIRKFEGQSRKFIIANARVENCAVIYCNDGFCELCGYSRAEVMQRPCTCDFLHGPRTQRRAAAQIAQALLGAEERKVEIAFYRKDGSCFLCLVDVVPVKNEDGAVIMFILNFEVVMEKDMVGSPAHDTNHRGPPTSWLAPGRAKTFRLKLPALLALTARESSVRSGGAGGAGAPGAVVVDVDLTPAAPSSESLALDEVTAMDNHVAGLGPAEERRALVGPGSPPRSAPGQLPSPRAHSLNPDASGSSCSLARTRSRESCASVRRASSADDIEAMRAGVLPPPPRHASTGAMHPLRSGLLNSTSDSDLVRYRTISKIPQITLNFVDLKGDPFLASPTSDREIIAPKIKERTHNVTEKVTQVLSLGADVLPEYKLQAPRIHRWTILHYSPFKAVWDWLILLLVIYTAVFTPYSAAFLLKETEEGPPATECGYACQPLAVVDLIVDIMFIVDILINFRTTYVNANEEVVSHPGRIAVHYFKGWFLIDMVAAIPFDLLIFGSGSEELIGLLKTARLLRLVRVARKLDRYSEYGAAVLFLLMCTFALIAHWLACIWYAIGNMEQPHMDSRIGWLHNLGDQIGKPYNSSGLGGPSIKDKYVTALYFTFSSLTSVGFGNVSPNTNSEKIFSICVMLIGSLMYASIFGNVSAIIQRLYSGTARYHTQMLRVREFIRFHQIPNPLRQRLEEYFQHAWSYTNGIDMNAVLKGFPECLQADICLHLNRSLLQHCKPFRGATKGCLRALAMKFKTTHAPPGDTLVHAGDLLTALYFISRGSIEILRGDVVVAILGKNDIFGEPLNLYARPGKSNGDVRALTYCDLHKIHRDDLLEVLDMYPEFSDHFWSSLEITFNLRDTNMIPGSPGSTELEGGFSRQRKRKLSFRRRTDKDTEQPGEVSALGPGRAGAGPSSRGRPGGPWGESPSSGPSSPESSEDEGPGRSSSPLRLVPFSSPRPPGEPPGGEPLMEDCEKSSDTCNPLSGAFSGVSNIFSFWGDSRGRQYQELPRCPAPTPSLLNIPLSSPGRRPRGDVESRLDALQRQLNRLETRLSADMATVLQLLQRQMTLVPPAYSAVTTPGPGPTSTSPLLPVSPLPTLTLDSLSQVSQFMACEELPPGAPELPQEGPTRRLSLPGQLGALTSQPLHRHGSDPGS
GSK3β (Glycogen synthase kinase-3 beta), sequence (P49841 whole entry): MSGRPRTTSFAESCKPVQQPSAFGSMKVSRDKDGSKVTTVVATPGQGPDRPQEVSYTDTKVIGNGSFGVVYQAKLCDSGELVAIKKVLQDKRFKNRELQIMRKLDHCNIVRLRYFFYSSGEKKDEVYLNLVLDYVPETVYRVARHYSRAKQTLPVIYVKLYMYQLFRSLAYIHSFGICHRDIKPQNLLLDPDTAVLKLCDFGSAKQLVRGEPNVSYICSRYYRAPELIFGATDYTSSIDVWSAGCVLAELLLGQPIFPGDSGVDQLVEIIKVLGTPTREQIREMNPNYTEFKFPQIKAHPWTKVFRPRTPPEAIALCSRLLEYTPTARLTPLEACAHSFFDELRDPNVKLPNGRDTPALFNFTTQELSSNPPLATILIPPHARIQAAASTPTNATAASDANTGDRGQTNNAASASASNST
T1 sequence (Q8NBP7 31-692): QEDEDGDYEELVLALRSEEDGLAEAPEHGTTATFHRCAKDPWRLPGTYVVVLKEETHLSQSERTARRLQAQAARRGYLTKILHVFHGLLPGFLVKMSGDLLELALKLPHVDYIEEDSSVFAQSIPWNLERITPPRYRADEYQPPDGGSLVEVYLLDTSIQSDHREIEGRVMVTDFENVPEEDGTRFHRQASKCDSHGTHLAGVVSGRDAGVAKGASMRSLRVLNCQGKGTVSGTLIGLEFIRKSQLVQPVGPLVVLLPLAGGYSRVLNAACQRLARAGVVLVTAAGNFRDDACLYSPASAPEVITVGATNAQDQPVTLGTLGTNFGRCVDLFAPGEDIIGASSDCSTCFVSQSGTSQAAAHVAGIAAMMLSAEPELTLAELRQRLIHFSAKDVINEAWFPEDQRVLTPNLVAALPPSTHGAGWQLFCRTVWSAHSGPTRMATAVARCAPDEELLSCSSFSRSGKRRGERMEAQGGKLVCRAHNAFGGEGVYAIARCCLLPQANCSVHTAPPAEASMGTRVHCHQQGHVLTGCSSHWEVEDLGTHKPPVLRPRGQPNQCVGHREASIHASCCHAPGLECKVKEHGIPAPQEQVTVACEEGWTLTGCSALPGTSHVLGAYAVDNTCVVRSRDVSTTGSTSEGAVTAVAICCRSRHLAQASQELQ

SMILES | Kd [1] | IC50 [2] | IC50 [3] | IC50 [4]
N#Cc1cnc(N[C@H]2CC[C@H](Nc3ccc(-n4ccccc4=O)cn3)C2)cn1 [Example 5, 5-(((1S,3S)-3-((2-Oxo-2H-[1,3′-bipyridin]-6′-yl)amino)cyclopentyl)amino)pyrazine-2-carbonitrile] | 0.412 µM | 18.5 µM | 0.713 µM | 0.499 µM
Cc1ncc(N[C@H]2CC[C@H](Nc3ccc(-n4cccc(C)c4=O)cn3)C2)nc1C [Example 18, 6′-(((1S,3S)-3-((5,6-Dimethylpyrazin-2-yl)amino)cyclopentyl)amino)-3-methyl-2H-[1,3′-bipyridin]-2-one] | 0.014 µM | > 40 µM | > 10 µM | 0.017 µM
Cc1ncc(N[C@H]2CC[C@H](Nc3ccc(N4C(=O)CN(C)C4=O)cn3)C2)nc1C [Example 22, 3-(6-(((1S,3S)-3-((5,6-Dimethylpyrazin-2-yl)amino)cyclopentyl)amino)pyridin-3-yl)-1-methylimidazolidine-2,4-dione] | 0.093 µM | > 40 µM | > 10 µM | 0.107 µM
Cc1cnc(N[C@H]2CC[C@H](Nc3ccc(N4CC(=O)N(C)C4=O)cn3)C2)cn1 [Example 39, 3-Methyl-1-(6-(((1S,3S)-3-((5-methylpyrazin-2-yl)amino)cyclopentyl)amino)pyridin-3-yl)imidazolidine-2,4-dione] | 0.033 µM | > 40 µM | > 10 µM | 0.034 µM
O=C(O)[C@@H]1CCC(=O)N1c1ccc(N[C@H]2CC[C@H](Nc3cnc(OC(F)F)cn3)C2)nc1 [Example 79, (S)-1-(6-(((1S,3S)-3-((5-(Difluoromethoxy)pyrazin-2-yl)amino)cyclopentyl)amino)pyridin-3-yl)-5-oxopyrrolidine-2-carboxylic acid] | 0.422 µM | > 40 µM | > 10 µM | 0.827 µM
CN1CCN(c2ccc(=O)n(-c3ccc(N[C@H]4CC[C@H](Nc5cnc(OC(F)F)cn5)C4)nc3)c2)CC1 [Example 81, 6′-(((1S,3S)-3-((5-(Difluoromethoxy)pyrazin-2-yl)amino)cyclopentyl)amino)-5-(4-methylpiperazin-1-yl)-2H-[1,3′-bipyridin]-2-one] | 0.066 µM | > 40 µM | 0.498 µM | 0.202 µM
O=c1ccccn1-c1ccc(N[C@H]2CC[C@H](Nc3cnc(OC(F)F)cn3)C2)nc1 [Example 86, 6′-(((1S,3S)-3-((5-(Difluoromethoxy)pyrazin-2-yl)amino)cyclopentyl)amino)-2H-[1,3′-bipyridin]-2-one] | 0.064 µM | 13.4 µM | > 10 µM | 0.073 µM
CN1C(=O)CN(c2ccc(N[C@H]3CC[C@H](Nc4cnc(OC(F)F)cn4)C3)nc2)C1=O [Example 92, 1-(6-(((1S,3S)-3-((5-(Difluoromethoxy)pyrazin-2-yl)amino)cyclopentyl)amino)pyridin-3-yl)-3-methylimidazolidine-2,4-dione] | 0.052 µM | 4.4 µM | > 10 µM | 0.059 µM
CN1CC(=O)N(c2ccc(N[C@H]3CC[C@H](Nc4cnc(Cl)cn4)C3)nc2)C1=O [Example 100, 3-(6-(((1S,3S)-3-((5-Chloropyrazin-2-yl)amino)cyclopentyl)amino)pyridin-3-yl)-1-methylimidazolidine-2,4-dione] | 0.045 µM | > 40.1 µM | > 10 µM | 0.028 µM
Cc1nc(N[C@H]2CC[C@H](Nc3ccc(-n4ccccc4=O)cn3)C2)cnc1Cl [Example 102, 6′-(((1S,3S)-3-((5-Chloro-6-methylpyrazin-2-yl)amino)cyclopentyl)amino)-2H-[1,3′-bipyridin]-2-one] | 0.122 µM | 17.7 µM | > 10 µM | 0.085 µM
O=c1ccccn1-c1ccc(N[C@H]2CC[C@H](Nc3cnc(OC(F)(F)F)cn3)C2)nc1 [Example 111, 6′-(((1S,3S)-3-((5-(Trifluoromethoxy)pyrazin-2-yl)amino)cyclopentyl)amino)-2H-[1,3′-bipyridin]-2-one] | 0.128 µM | 20.8 µM | > 10 µM | 0.149 µM
O=c1ccccn1-c1ccc(N[C@H]2CC[C@H](Nc3cnc4ccc(Cl)cc4n3)C2)nc1 [Example 139, 6′-(((1S,3S)-3-((7-Chloroquinoxalin-2-yl)amino)cyclopentyl)amino)-2H-[1,3′-bipyridin]-2-one] | 0.46 µM | 4.6 µM | 0.292 µM | 0.235 µM
Cc1cncc(N[C@H]2CC[C@H](Nc3ccc(-n4ccccc4=O)cn3)C2)n1 [Example 141, 6′-(((1S,3S)-3-((6-Methylpyrazin-2-yl)amino)cyclopentyl)amino)-2H-[1,3′-bipyridin]-2-one] | 0.405 µM | > 40 µM | > 10 µM | 0.592 µM
N#Cc1cncc(N[C@H]2CC[C@H](Nc3ccc(-n4ccccc4=O)cn3)C2)n1 [Example 142, 6-(((1S,3S)-3-((2-Oxo-2H-[1,3′-bipyridin]-6′-yl)amino)cyclopentyl)amino)pyrazine-2-carbonitrile] | 2.42 µM | > 35.4 µM | 0.764 µM | 1.61 µM
O=c1ccccn1-c1ccc(N[C@H]2CC[C@H](Nc3cnc4cccnc4n3)C2)nc1 [Example 143, 6′-(((1S,3S)-3-(Pyrido[2,3-b]pyrazin-3-ylamino)cyclopentyl)amino)-2H-[1,3′-bipyridin]-2-one] | 1.54 µM | > 40 µM | > 10 µM | 2.39 µM
COc1cccc2ncc(N[C@H]3CC[C@H](Nc4ccc(-n5ccccc5=O)cn4)C3)nc12 [Example 144, 6′-(((1S,3S)-3-((8-Methoxyquinoxalin-2-yl)amino)cyclopentyl)amino)-2H-[1,3′-bipyridin]-2-one] | 0.336 µM | > 35 µM | 2.34 µM | 0.484 µM
O=c1ccccn1-c1ccc(N[C@H]2CC[C@H](Nc3cnc4c(F)cccc4n3)C2)nc1 [Example 145, 6′-(((1S,3S)-3-((5-Fluoroquinoxalin-2-yl)amino)cyclopentyl)amino)-2H-[1,3′-bipyridin]-2-one] | 0.637 µM | 18.5 µM | > 10 µM | 0.96 µM
Nc1ccc2ncc(N[C@H]3CC[C@H](Nc4ccc(-n5ccccc5=O)cn4)C3)nc2n1 [Example 146, 6′-(((1S,3S)-3-((6-Aminopyrido[2,3-b]pyrazin-3-yl)amino)cyclopentyl)amino)-2H-[1,3′-bipyridin]-2-one] | 1.5 µM | > 40 µM | > 10 µM | 1.48 µM
Cc1cnc(N[C@H]2CC[C@H](Nc3ccc(-n4nc(C)ccc4=O)cn3)C2)cn1 [Example 231, 6-Methyl-2-(6-(((1S,3S)-3-((5-methylpyrazin-2-yl)amino)cyclopentyl)amino)pyridin-3-yl)pyridazin-3 (2H)-one] | 0.035 µM | > 40.1 µM | > 10 µM | 0.046 µM
